Reference: PubChem BioAssay AID588401 (Johns Hopkins Ion Channel Center, 2011)
Calls of active or inactive are those of the source.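 How the source made its calls: active means blocks the choline transporter at some tested dose and yields a fitted dose response curve; inconclusive means no clear call, values can overlap the other calls; inactive means no blocking at any dose or no curve.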

Biological target: High affinity choline transporter 1 (Homo sapiens) (UniProt Q9GZV3)
Assay: human choline transporter blockers, potency – cell-based, 10-point CRC, membrane potential dye, dose response (AID 588401)
Details: HEK293-CHT, choline-induced depolarization, at 25 µM (top of the series)

Chain of High affinity choline transporter 1 (Homo sapiens) (Q9GZV3 whole entry, looked up): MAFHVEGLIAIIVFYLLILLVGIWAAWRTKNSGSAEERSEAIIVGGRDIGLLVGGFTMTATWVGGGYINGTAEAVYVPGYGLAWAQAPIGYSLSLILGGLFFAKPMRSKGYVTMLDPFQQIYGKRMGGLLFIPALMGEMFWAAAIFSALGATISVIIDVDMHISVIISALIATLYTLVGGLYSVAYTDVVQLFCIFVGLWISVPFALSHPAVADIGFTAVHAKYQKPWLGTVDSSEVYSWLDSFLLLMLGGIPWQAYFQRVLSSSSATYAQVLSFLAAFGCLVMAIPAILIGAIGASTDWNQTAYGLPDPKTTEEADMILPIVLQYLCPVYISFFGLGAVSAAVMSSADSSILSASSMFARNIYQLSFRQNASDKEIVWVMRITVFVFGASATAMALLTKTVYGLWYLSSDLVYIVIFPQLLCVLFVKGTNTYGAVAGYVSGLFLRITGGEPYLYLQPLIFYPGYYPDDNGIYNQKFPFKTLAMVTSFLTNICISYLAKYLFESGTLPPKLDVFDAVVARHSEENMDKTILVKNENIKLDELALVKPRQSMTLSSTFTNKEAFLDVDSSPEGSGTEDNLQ

SMILES | inhibition (negative values = inhibition)
C=CCn1c(O)c(C(CC)=NC(C)c2ccccc2)c(=O)[nH]c1=O (centres undefined) | inactive

Same assay, conditions: HEK293-CHT, choline-induced depolarization, at 25 µM (top of the series), cells express LV-AA mutant CHT

SMILES | inhibition (negative values = inhibition)
COc1ccccc1Nc1nnc(SCC2CCCCO2)s1 (centres undefined) | inactive
Cc1nn(-c2ccccc2)c2[nH]c(=O)cc(C(F)(F)F)c12 | inactive
O=[N+]([O-])c1ccc(S(=O)(=O)Nc2nc(-c3ccccc3)cs2)cc1 | inactive
c1ccc(CCNc2c3c(nc4ncnn24)CCC3)cc1 | inactive
COC(=O)/C(=C/c1c[nH]c2ccccc12)[N+](=O)[O-] | inactive
CC#CCN(CC#CC)S(=O)(=O)c1ccc(-n2cnnn2)c(OC)c1 | inactive
Oc1c(Cl)cc(Cl)cc1C=Nc1ccc2c(c1)OCCO2 | inactive
CCOC(=O)C1CCN(Cc2c(O)c3ccccc3oc2=O)CC1 | inactive
COc1cc2c(cc1OC)-c1cc(NC3CCCCCCC3)nc(=O)n1CC2 | inactive
O=C(Nc1ccccc1C(=O)NCCCN1CCOCC1)c1ccc(F)cc1 | inactive
CC(Oc1ccccc1Cl)C(=O)Nc1ccc(S(=O)(=O)Nc2nccs2)cc1 (centres undefined) | inactive
CC(/C=N/NC(=O)c1cc(-c2ccncc2)nc2ccccc12)=C\c1ccco1 | inactive
COc1cc(/C=C2\S/C(=N/S(=O)(=O)Cc3ccccc3)NC2=O)c([N+](=O)[O-])cc1OC | inactive
CCCn1nc2cc(C(=O)NCc3ccc(C)cc3)ccc2c1OCC | inactive
Cc1c(C(=O)OC(C)C)sc(NC(=O)c2cccnc2)c1C#N | inactive
COc1ccc(C(=O)NC(Cc2ccc(OC(=O)c3ccc(OC)cc3)cc2)C(=O)O)cc1 (centres undefined) | inactive
CCOC(=O)c1nc(NNC(=O)c2ccc([N+](=O)[O-])cc2)sc1C | inactive
O=c1c2cc(Br)ccc2nc(-c2ccc(Cl)cc2)n1O | inactive
N=c1n(Cc2ccccc2)c2ccccc2n1CC(O)COc1ccccc1 (centres undefined) | inactive
CCN1CCn2c3c(c4cc(Cl)ccc42)CCCC31 (centres undefined) | inactive
CCOC(=O)c1c(NC(=O)C2C3C=CC(C3)C2C(=O)O)sc2c1CCC(CC)C2 (centres undefined) | inactive
CCCOc1ccc(C(CC(=O)O)NC(=O)c2sc3ccccc3c2Cl)cc1 (centres undefined) | inactive

SMILES | inhibition (negative values = inhibition)
Cc1cc(CN(C)C(=O)c2cc(COc3ccc(F)cc3Cl)on2)n[nH]1 | inactive
c1ccc(CN2CCN(c3nc4ccccc4n4cnnc34)CC2)cc1 | inactive
CN(C)CCCn1c(=O)n(C2CCCCC2)c(=O)c2c3c(sc21)CCCCC3 | inactive
COc1ccc(OC)c(/C=C2\SC(=S)N(NS(=O)(=O)c3ccccc3)C2=O)c1 | inactive
CCOC(=O)Cc1csc(NS(=O)(=O)c2ccc3c4c(cccc24)C(=O)N3CC)n1 | inactive
O=C(Nc1ccn(Cc2ccccc2)n1)c1n[nH]c([N+](=O)[O-])c1Cl | inactive
CN(CCC#N)C(=O)COC(=O)c1ccccc1C(=O)c1ccc(Cl)c([N+](=O)[O-])c1 | inactive
Cc1cccc(OCC(O)Cn2c(=N)n(Cc3ccccc3)c3ccccc32)c1 (centres undefined) | inactive
Oc1cccc(C(O)CNCc2ccc(OCc3ccc(Cl)cc3Cl)cc2)c1 (centres undefined) | inactive
Cc1cccc(C(=O)Nc2cccc(OCC(=O)O)c2)c1 | inactive
CCc1cc2c(NCc3ccco3)ncnc2s1 | inactive
Cc1ccc(C(=O)NC2CCCC(C)C2C)cc1S(=O)(=O)N1CCCCC1 (centres undefined) | inactive
CC1CCCCC1NC(=S)Nc1ccc(SC(F)F)cc1 (centres undefined) | inactive
CCOc1ccc(/C=C2\SC(=S)N(NS(=O)(=O)c3ccccc3)C2=O)cc1OC | inactive
COc1ccc(C(C(=O)NC2CCCCC2)N(C(=O)c2ccco2)c2ccccc2C(C)=O)cc1OC (centres undefined) | inactive
Cc1cc(Cl)ccc1OCCCC(=O)N1CCN(C(=O)c2ccco2)CC1 | inactive
CC(SCc1ccccc1)C(=O)N/N=C/c1ccc(OCC(=O)NCc2ccco2)cc1 (centres undefined) | inactive
O=C1ON=C(c2ccccc2)/C1=C/c1ccc(O)c(O)c1 | inactive
C=CCSc1nc2ccccc2n1Cc1nnc(-c2cccs2)o1 | inactive
O=S(=O)(c1ccc(N2CCCC2)nc1)N1CCCC1 | inactive
CCOC(=O)N1CCC(NC(=O)C2CCCN(Cc3nc(-c4cccc(Cl)c4)oc3C)C2)CC1 (centres undefined) | inactive
Cc1ccc(C)c(OCC(=O)Nc2ccc(S(=O)(=O)Nc3ccccn3)cc2)c1C | inactive

SMILES | inhibition (negative values = inhibition)
O=C(CSc1nnc(-c2ccncc2)n1Cc1ccco1)c1ccc(Cl)cc1 | inactive
CCCNc1nc2c(c(=O)n(C)c(=O)n2C)n1CCC(C)C | inactive
O=C(N/N=C/c1ccsc1)c1c[nH]c2ccccc12 | inactive
Cc1ccc(-n2cc(CN3CCN(Cc4nccn4C)CC3)c(-c3ccc(F)cc3)n2)cc1 | inactive
O=C1NC(c2ccccc2)=C(c2ccc3ccccc3n2)C(c2ccncc2)N1 (centres undefined) | inactive
O=C(C1CCCN(c2ncnc3c2nc2n3CCCCC2)C1)N1CCN(c2ccc(Cl)cc2)CC1 (centres undefined) | inactive
Cc1cccc(C(=O)NNC(=S)NC(=O)c2ccccc2)c1 | inactive
Cc1ccc(S(=O)(=O)N2[C@@H](c3ccc(Cl)cc3)C(C(=O)O)=CC[C@H]2c2ccc(Cl)c(Cl)c2)cc1 | inactive
CC(/C=C1\SC(=S)N(NS(=O)(=O)c2ccccc2)C1=O)=C\c1ccccc1 | inactive
Cc1ccccc1CCNCc1cc2cccc(C)c2[nH]c1=O | inactive
CC1(C(=O)N2CCC(CC3CC(c4ccc(Cl)cc4)=NO3)(C(=O)NCC3CCCCC3)CC2)CC1 (centres undefined) | inactive
CCN1CCN(CCNC(=O)c2ccc3nc(-c4cccc(C)c4)c(-c4cccc(C)c4)nc3c2)CC1 | inactive
N#CC(C#N)=C(Nc1ccc(F)cc1)SCc1cccc(F)c1 | inactive
COc1ccc(-n2c(=S)[nH]c3cc(C(=O)NCCCN4CCOCC4)ccc3c2=O)cc1 | inactive
O=C(c1ccc(Cl)c(S(=O)(=O)N2CCCC2)c1)N1CCN(c2ccccc2)CC1 | inactive
Cc1ccc(C(=O)NC2CCCCC2)cc1S(=O)(=O)N1CCCC1 | inactive
Cc1cc(OC(C)C(=O)Nc2ccc(S(=O)(=O)Nc3onc(C)c3C)cc2)cc(C)c1Cl (centres undefined) | inactive
Cc1csc(NC(=O)CSc2nc(C(C)C)nc3ccccc23)n1 | inactive
CC1CCCCC1NC(=O)c1c(O)nc2ccccn2c1=O (centres undefined) | inactive
COc1cc(CNc2ccc(N3CCCCC3)cc2)ccc1OCC(=O)NC(C)(C)C | inactive
NC(=S)N/N=C1/CCSc2ccc3ccccc3c21 | inactive
CC(C)Nc1nc(Cl)nc(N(C#N)CN2C(=O)c3ccccc3C2=O)n1 | inactive

SMILES | inhibition (negative values = inhibition)
CN(Cc1cccs1)c1ncnc2sccc12 | inactive
C/C(=N/NC(=O)c1cc(Cl)ccc1O)C12CC3CC(CC(C3)C1)C2 | inactive
CCN(CC(=O)Nc1cccc(OC)c1)c1ncnc2sc(C)c(C)c12 | inactive
Cc1nn2c(N3CCN(C)CC3)c3c(nc2c1-c1ccccc1)CCCC3 | inactive
O=C(CSc1nnc(-c2ccco2)n1Cc1ccco1)NCc1cccs1 | inactive
COc1ccc(C/C(O)=C(\C#N)c2nc3ccccc3s2)cc1 | inactive
CCc1cc2c(N3CCN(c4nnc(CC)s4)CC3)ncnc2s1 | inactive
Cc1ccc(N2NC(=O)/C(=C\c3cc4c(cc3[N+](=O)[O-])OCO4)C2=O)cc1C | inactive
CC1(C)CC2CC(C)(CN2c2ncnc3ccccc23)C1 (centres undefined) | inactive
Cn1c(-c2sc3ccccc3c2Cl)n[nH]c1=S | inactive
Cc1cc(-c2ccccc2)n(-c2ccc(C(=O)N3CCN(c4ncccn4)CC3)cc2)n1 | inactive
CC(C)(C)S(=O)(=O)/C(C#N)=N/Nc1ccc(Cl)cc1 | inactive
COCCCNC(=O)c1ccc(OC)c(OC2CCN(C(C)C)CC2)c1 | inactive
CCCN(CCC)c1nc(N(CCC)CCC)[nH]c(=O)n1 | inactive
CC1(C)CC(=O)C=C(Nc2cccc(Cl)c2Cl)C1 | inactive
COc1cc(NC(=O)c2csc(-c3ccncc3)n2)cc(C(=O)Nc2cccc(C(F)(F)F)c2)c1 | inactive
O=C(COC(=O)CCCSc1nc2ccccc2[nH]1)NC(=O)NC1CCCC1 | inactive
Cc1ccc(C(=O)CSc2nnc(-c3ccco3)n2C)cc1 | inactive
CCN(Cc1ccccc1)S(=O)(=O)c1cc(C(=O)NC2CCCCCC2)ccc1OC | inactive
COc1ccc(C2=Nn3c(nnc3C3CCCCC3)SC2)cc1OC | inactive
CCc1ccc2oc(C(=O)NCC(c3ccc(OC)cc3)N3CCCCC3)c(C)c2c1 (centres undefined) | inactive

Same assay, conditions: HEK293-CHT, choline-induced depolarization, cells express LV-AA mutant CHT

SMILES | IC50 [µM]
Cc1ccc(NC(=O)c2ccc(CN3CC(=O)N4CCCCC4C3=O)cc2)c(C)c1 (centres undefined) | 4.47
